Experiments:
[1] = tested on: gravid Ae. aegypti; test: Egg-laying (contact-mediated) binary choice bioassay; assay type: in vivo, Aedes aegypti; conditions: for induction of egg laying by synthetic compounds: 1, 10 and 100 ng in 30 mL water
Method: Modifications of the olfactory- and contact-mediated bioassays previously described (Trexler J D, Apperson C S, Schal C (1998) J Med Entomol 35:967-976) were used to measure the response of gravid mosquitoes to plant infusions (or bacterial compounds). Briefly, two 125-mL polypropylene cups (test and control) were placed randomly in diagonal corners of a Plexiglas cage (30×30×30 cm) that was fitted with a stockinet cloth sleeve (AlbaHealth, Rockwood, Tenn.). Each cup was filled with 30 mL of either test or control solution. White paper sleeves were placed around each bioassay cup to mask visual cues presented by darkly colored leaf infusions. Adults had ad libitum access to water contained in a polypropylene cup that was fitted with a lid with a cotton wick protruding through a hole in the lid. For egg-laying bioassays, either one or five gravid females were released in each replicate cage. Cages were placed randomly on racks in a room where environmental conditions were the same as in the insectary. After a 24 h exposure period, eggs laid on the surface of the water in the test and control cups were counted. In olfactory bioassays, 10 gravid females were released in each bioassay cage. A circular metal wire-mesh screen covered with insect glue (Tanglefoot; Tanglefoot Co.) was inserted in each cup on top of an insert cut from a 120-mL polypropylene cup. Sticky screens were placed above test and control media, 2.5 cm below the lip of each cup. The mesh size of the metal screen prevented females from entering without landing on the screen. Therefore, positive or negative responses to the test infusions were measured by the numbers of females trapped during a 24 h exposure period on the sticky screen in the test and control cups.
For each replicate bioassay cage, the numbers of eggs laid in the test and control cups were converted to the proportion of the total number of eggs laid. The proportions were subjected to an arcsin√x transformation to achieve approximate normality. A one-tailed paired t test was used to determine whether differences in the mean transformed proportion of eggs deposited in test and control cups were statistically significant.
Synthetic compounds were bioassayed by placing hexane solutions on the surface of sterile distilled water; water in control cups was treated with hexane alone. The hexane was evaporated in a fume hood before bioassays commenced. Each bioassay was with a single female and lasted 72 h.

[2] = tested on: gravid Ae. aegypti; test: as above; assay type: in vivo, Aedes aegypti; conditions: for Eggs per assay: five females per assay, 24-h
[3] = dose 1 ng in 30 mL water, single female, 72 h
[4] = dose 10 ng in 30 mL water, single female, 72 h
[5] = dose 10 ng, single female, 72 h
[6] = dose 100 ng in 30 mL water, single female, 72 h
[7] = dose 100 ng, single female, 72 h
[8] = 1 ng, five females, 24 h assays
[9] = dose 0.01 ng, five females per assay, 24-h
[10] = dose 0.1 ng, five females per assay, 24-h
[11] = dose 1.0 ng, five females per assay, 24-h
[12] = dose 0.01 mg, single female, 72 h
[13] = dose 0.1 mg, single female, 72 h
[14] = dose 1.0 mg, single female, 72 h

Row | SMILES | Treatment, % (eggs in treatment cup) [1, 3] | Eggs per assay ([1]; dose 1 ng, single female, 72 h) | Treatment, % (eggs in treatment cup) [1, 4] | Eggs per assay [1, 5] | Treatment, % (eggs in treatment cup) [1, 6] | Eggs per assay [1, 7] | induction of egg laying by synthetic compounds ([1]; single female, 72 h) | also measured
1 | CCCCCCCCCCCCCCCCCC(=O)O [Octadecanoic acid] | 55.1% | 71.3 ± 3.3 | 46.4% | 69.0 ± 3.6 | 58.4% | 64.8 ± 4.8 |  | 
2 | CCCCCCCCCCCCCC(=O)O [Tetradecanoic acid] | 45.4% | 79.6 ± 2.7 | 81.0% | 87.7 ± 5.1 | 62.1% | 80.2 ± 5.2 | highly effective at inducing egg laying | oviposition stimulation [2, 8]: highly stimulatory; Eggs per assay ([2]; dose 10 ng): 196.4 ± 23.2; Eggs per assay ([2]; dose 100 ng): 260.4 ± 30.9; eggs per female in 24 h [1, 8]: 43.4±3.9; diversion of oviposition to treated water ([1]; 10 ng, single female, 72 h): diverted the greatest amount of oviposition to the treated water; Eggs per assay [1, 9]: 318.5 ± 14.4; Treatment, % (eggs in treatment cup) [1, 9]: 52.3%; Eggs per assay [1, 10]: 232.1 ± 22.3; Treatment, % (eggs in treatment cup) [1, 10]: 57.8%; Eggs per assay [1, 11]: 216.8 ± 19.4; Treatment, % (eggs in treatment cup) [1, 11]: 76.9%; Treatment, % (eggs in treatment cup) ([1]; dose 10 ng, five females per assay, 24-h): 57.9%; Treatment, % (eggs in treatment cup) ([1]; dose 100 ng, five females per assay, 24-h): 38.7%
3 | CCCCCCCCCCCCCCCC(=O)O [Hexadecanoic acid] | 53.4% | 63.7 ± 4.2 | 43.2% | 63.5 ± 4.9 | 38.2% | 71.8 ± 4.8 |  | 
4 | CCCCCCCCC(=O)O [Nonanoic acid] | 38.6% | 70.9 ± 4.0 | 58.3% | 74.3 ± 6.1 | 69.1% | 80.0 ± 3.3 | highly effective at inducing egg laying | 
5 | CCCCCCCCCC(=O)O [Decanoic acid] | 43.7% | 60.0 ± 5.6 | 52.2% | 61.3 ± 5.0 | 45.8% | 67.0 ± 7.0 |  | 
6 | CCCCCCCCCCCCCC(=O)OC [Tetradecanoic acid, methyl ester] | 55.0% | 68.3 ± 5.4 | 70.2% | 64.0 ± 7.1 | 51.0% | 70.6 ± 6.0 | highly effective at inducing egg laying | 
7 | CCCCCCCCCCCCCCCC(=O)OC [Hexadecanoic acid, methyl ester] | 34.7% | 51.0 ± 3.5 | 59.1% | 51.3 ± 3.0 | 60.4% | 58.6 ± 3.8 |  | 
8 | CCCCCCCCCCCC(=O)O [Dodecanoic acid] | 47.0% | 67.3 ± 4.0 | 43.4% | 66.3 ± 3.1 | 47.6% | 63.8 ± 3.4 |  | Eggs per assay [1, 12]: 66.5 ± 4.2; Treatment, % (eggs in treatment cup) [1, 12]: 52.2%; Eggs per assay [1, 13]: 64.4 ± 2.9; Treatment, % (eggs in treatment cup) [1, 13]: 45.8%; Eggs per assay [1, 14]: 60.2 ± 2.8; Treatment, % (eggs in treatment cup) [1, 14]: 42.2%
